# US20160114062A1, “TREATMENT OF IMMUNE, INFLAMMATORY AND DEGENERATIVE ARTHRITIDES WITH TIN-117m” (RHEUMCO LLC, priority 2013, published 2016)
# Values joined by “and” are separate entries in the source; they are usually repeats but may differ in a detail not shown here. Equal entries are not always repeated.
# Columns and labels:
# [1] = tested on: standard arthritic rat model (collagen induced rheumatoid arthritis-like); assay: Histopathology of knees, 2nd study (HSA Sn-117m annexin); format: in vivo; settings: for Bone Resorption Score / Cartilage Damage Score / Inflammation Score / Pannus Score: score 0-5, 0 = normal, 5 = severe
# Protocol: (§1) In order to test the efficacy of the present invention, a standard arthritic rat model was employed. Specifically, rodents were injected with collagen, which induced a reaction similar to rheumatoid arthritis. […] Two different studies were conducted.
# (§2) At around day 14, the animals were sacrificed and tissues sent for histological analyses.
# [2] = Biodistribution, 2nd study (HSA Sn-117m annexin) in collagen-induced arthritic rats; format: in vivo, Rat; settings: dose 50 (mCi), at sacrifice Day 14
# Protocol: as §1, §2
# [3] = L knee (injected), ~50 uCi into L synovium
# [4] = R knee, ~50 uCi into L synovium
# [5] = mean of all animals, both knees, both routes, score 0-5
substance,measurement,setting,value
Sn-117m Annexin: High specific activity tin-117m attached to annexin V through an aminobenzyl DOTA linker,Summed Histopathology Scores,[1]; [3],9
same,Bone Resorption Score,[1]; [3],1
same,Cartilage Damage Score,[1]; [3],2
same,Inflammation Score,[1]; [3],5
same,Pannus Score,[1]; [3],1
same,Summed Histopathology Scores,"[1]; L knee, ~50 uCi retro-orbital",8 and 4
same,Cartilage Damage Score,"[1]; L knee, ~50 uCi retro-orbital",1 and 0.5
same,Inflammation Score,"[1]; L knee, ~50 uCi retro-orbital",5 and 3
same,Pannus Score,"[1]; L knee, ~50 uCi retro-orbital",1 and 0.5
same,Summed Histopathology Scores,[1]; [4],9 and 7.5
same,Bone Resorption Score,[1]; [4],1 and 0.5
same,Cartilage Damage Score,[1]; [4],2 and 1
same,Inflammation Score,[1]; [4],5
same,Pannus Score,[1]; [4],1
same,Cartilage Damage Score,"[1]; R knee, ~50 uCi retro-orbital",0.5
same,Pannus Score,"[1]; R knee, ~50 uCi retro-orbital",0.5
same,Effectiveness (in words),"[1]; administered directly into the synovium, second study",appears to be effective
same,"Summed Histopathology Scores, Mean","[1]; mean of all animals, both knees, both routes",7.04
same,"Bone Resorption Score, Mean",[1]; [5],0.75
same,"Cartilage Damage Score, Mean",[1]; [5],1.33
same,"Inflammation Score, Mean",[1]; [5],4.04
same,"Pannus Score, Mean",[1]; [5],0.92
same,Right Leg (% ID),[2]; L Synovium injection,0.1 % ID
same,Left leg (% ID),[2]; Retro-orbital injection,0.1 % ID
same,Right Leg (% ID),[2]; Retro-orbital injection,0.1 % ID
